According to patent US20160228446A1, “Combination Drug Therapy” (GLAXOSMITHKLINE LLC, priority 2013, published 2016):

Assays:
[1] = system: prostate cancer xenograft models; conditions: in vivo; cited from earlier work
androgen receptor = androgen receptor (Homo sapiens, UniProt P10275); conditions: cited from earlier work
LNCaP cells = test: Luminescent caspase 3/7 assay; assay type: cell-based; conditions: single agent 5 uM, five days, normalized to ATP signal
Experimental: Caspase 3/7 activity was normalized and plotted as a percentage of the untreated control samples. Data for 2 independent experiments (N=1, N=2) is shown and represents mean±std dev from duplicate treatments. Tumor cells were seeded in 96-well white tissue culture plates in 100 μL growth media (media with 10% FBS) or CSS media (media with 10% charcoal stripped fetal bovine serum). LNCaP cells were seeded at a density of 1,000 cells per well. Approximately 24 hr after plating, duplicate or triplicate plates of cells were treated with indicated compounds for both luminescent caspase-3/7 and CTG readings. At the end of the 5 days of incubations, half of the plates were lysed and caspase-3/7 activity was measured using the Caspase-Glo® 3/7 Assay (Promega) according to the manufacturer's protocol. Caspase-Glo reagent was added to each plate, incubated for at least 45 minutes, and luminescent signal was read on the EnVision Multilabel Plate Reader with a 0.1 sec integration time. The remaining plates were lysed and ATP levels were measured using the CTG assay. The caspase-3/7 signal was normalized to the ATP signal. The normalized values were expressed as a percentage of the control wells.

[2] = system: LNCaP prostate cancer cells; test: Cell proliferation assay (CellTiter-Glo, total cellular ATP); assay type: cell-based; conditions: single agent; charcoal-stripped serum, 0.1 nM R1881, 7 days; percentage of DMSO-treated control
Experimental: Cells were grown in charcoal-stripped serum to deplete potential androgen from serum. Under these conditions, cell growth is dependent on exogenous androgen (e.g., R1881).
Androgen-dependent prostate cancer cell line, LNCaP, were grown in RPMI 1640 culture medium supplemented with 10% charcoal-stripped fetal bovine serum for 24 hours in 96-well tissue culture plates at a density of 1,000 cells per well. Cells were treated with various concentrations of compounds A or B alone and in combination in the presence of synthetic androgen (R1881, Sigma-Aldrich, St. Louis, Mo.). After 7 days, total cellular ATP was measured using the CellTiter-Glo Luminescent Cell Viability Assay (Promega, Madison, Wis.) on an EnVision plate reader. Background counts from wells containing no cells were subtracted and the data is presented as a percentage of the DMSO-treated control cells.

phospho-AKT = test: Immunoblot assay, AKT phosphorylation; assay type: cell-based; conditions: LNCaP cells, Compound B 3 or 10 uM, 0.1 nM R1881, six hours
Experimental: LNCaP cells were treated with Compound B (3 or 10 uM) alone or in presence of compound A (3 uM), all in presence of 0.1 nM synthetic androgen (R1881).
LNCaP cells were grown in RPMI 1640 culture medium supplemented with 10% charcoal-stripped fetal bovine serum for 48 hours in 6-well tissue culture plates at a density of 500,000 cells per well. Cells were treated with the indicated compounds for six hours, washed with PBS, and whole cell lysates were prepared in RIPA buffer (Teknova, Hollister, Calif.). Cell lysates were clarified by centrifugation at 20,000 relative centrifugal force, 4° C., and protein was quantified using the BCA Protein Assay Kit (Pierce, Rockford, Ill.). Equal amounts of protein lysates were separated by SDS-PAGE using a 4-12% Bis-Tris polyacrylamide gel (Life Technologies) and transferred to a nitrocellulose membrane and incubated with antibodies against total and phospho-AKT, phospho-PRAS40, total and phospho-S6, androgen receptor, and FKBP5. Following incubation with primary antibody, blots were washed and incubated with IRDye-800 anti-mouse or IRDye-680 anti-rabbit antibodies for 1 h. Following thorough washing, blots were analyzed using an infrared imaging system (LI-COR).

phospho-S6 = test: Immunoblot assay, phospho-S6; assay type: cell-based; conditions: LNCaP cells, Compound B 3 or 10 uM alone or with compound A 3 uM, 0.1 nM R1881, six hours

androgen receptor, sequence (P10275 whole entry, species assumed): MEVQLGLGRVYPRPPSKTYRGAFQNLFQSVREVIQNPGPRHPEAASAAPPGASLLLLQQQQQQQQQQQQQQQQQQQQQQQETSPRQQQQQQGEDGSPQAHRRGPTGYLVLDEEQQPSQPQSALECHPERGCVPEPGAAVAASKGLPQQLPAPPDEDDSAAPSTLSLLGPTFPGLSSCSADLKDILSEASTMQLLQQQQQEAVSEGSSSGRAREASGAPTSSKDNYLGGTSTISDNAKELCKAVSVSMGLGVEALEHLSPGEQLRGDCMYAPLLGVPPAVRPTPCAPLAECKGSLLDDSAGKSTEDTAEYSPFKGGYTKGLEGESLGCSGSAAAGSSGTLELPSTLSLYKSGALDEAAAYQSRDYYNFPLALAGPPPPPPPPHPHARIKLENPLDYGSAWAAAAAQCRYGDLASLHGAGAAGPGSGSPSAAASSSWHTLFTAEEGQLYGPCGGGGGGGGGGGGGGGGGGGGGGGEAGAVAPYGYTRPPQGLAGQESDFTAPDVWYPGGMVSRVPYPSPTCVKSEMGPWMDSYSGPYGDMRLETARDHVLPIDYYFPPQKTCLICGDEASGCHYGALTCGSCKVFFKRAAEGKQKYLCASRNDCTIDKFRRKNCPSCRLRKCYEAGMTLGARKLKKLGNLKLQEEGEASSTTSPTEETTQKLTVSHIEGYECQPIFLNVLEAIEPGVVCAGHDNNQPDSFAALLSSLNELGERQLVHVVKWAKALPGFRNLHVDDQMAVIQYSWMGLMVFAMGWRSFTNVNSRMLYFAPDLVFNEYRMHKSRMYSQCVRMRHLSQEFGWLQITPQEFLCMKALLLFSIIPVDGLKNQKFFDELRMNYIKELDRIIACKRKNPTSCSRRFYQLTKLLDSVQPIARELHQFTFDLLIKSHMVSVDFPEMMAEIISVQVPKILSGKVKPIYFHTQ

SMILES	anti-proliferative activity in prostate cancer xenograft models [1]	affinity for the androgen receptor (androgen receptor)	induction of caspase 3/7 activity (LNCaP cells)	LNCaP cell growth [2]	AKT phosphorylation (phospho-AKT)	phospho-S6 (phospho-S6)
CC(O)c1cc(C(=O)N[C@@H](C)Cn2ccc(-c3ccc(C#N)c(Cl)c3)n2)[nH]n1 (some centres unmarked) [ODM-201]	anti-proliferative activity	high affinity				
CNC(=O)c1ccc(N2C(=S)N(c3ccc(C#N)c(C(F)(F)F)c3)C(=O)C2(C)C)cc1F [Compound A, 4-(3-(4-Cyano-3-(trifluoromethyl)phenyl)-5,5-dimethyl-4-oxo-2-thioxoimidazolidin-1-yl)-2-fluoro-N-methylbenzamide]			minimal induction	inhibited		
Cc1c(Cn2c(C)nc3c(C(=O)O)cc(N4CCOCC4)cc32)cccc1C(F)(F)F [Compound B, 2-methyl-1-{[2-methyl-3-(trifluoromethyl)phenyl]methyl}-6-(4-morpholinyl)-1H-benzimidazole-4-carboxylic acid]			minimal induction	inhibited the growth	inhibited AKT phosphorylation	inhibition of phospho-S6
